Measurements published in ChEMBL document CHEMBL1201862, “PubChem BioAssay data set” (2004).
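Each compound was tested at five concentrations against cells in 96-well plates for 48 hours. GI50 = concentration required for 50% inhibition of growth.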 Activity calls are given as the source filed them. No stated cut-off is given here; in the data, active = GI50 up to about 1.1 µM and inactive = higher.

What was measured:
Test in all cases: NCI tumour cell line growth inhibition, 48 h
DLD-1 = tested on: DLD-1
DMS-114 = tested on: DMS-114
HOP-18 = tested on: HOP-18
KM-20L2 = tested on: KM-20L2
M19-MEL = tested on: M19-MEL
XF498 = tested on: XF498
DMS-273 = tested on: DMS-273
RXF 631 = tested on: RXF 631
SNB-78 = tested on: SNB-78

| SMILES | GI50 (DLD-1) | GI50 (DMS-114) | GI50 (HOP-18) | GI50 (KM-20L2) | GI50 (M19-MEL) | GI50 (XF498) | GI50 (DMS-273) | GI50 (RXF 631) | GI50 (SNB-78) |
| --- | --- | --- | --- | --- | --- | --- | --- | --- | --- |
| COc1cccc(NC(=O)C(=O)C2C=CCS2(=O)=O)c1 (stereo unspecified) | > 100 µM (inactive) | > 100 µM (inactive) | > 100 µM (inactive) | > 100 µM (inactive) | > 100 µM (inactive) | > 100 µM (inactive) |  |  |  |
| C#CCNC(=O)NCCCCC(NC(=O)OCc1ccccc1)C(=O)OCc1ccccc1 (stereo unspecified) | 49 µM (inactive) | 27.7 µM (inactive) | > 100 µM (inactive) | > 100 µM (inactive) | 38.7 µM (inactive) | 18.5 µM (inactive) | > 71.3 µM (inactive) | > 58.5 µM (inactive) | > 80.9 µM (inactive) |
| O=C(CCc1nnc(S)[nH]1)Nc1cc(Cl)c(Cl)cc1Cl |  | > 100 µM (inactive) |  | > 100 µM (inactive) | > 100 µM (inactive) | > 100 µM (inactive) | > 100 µM (inactive) | > 100 µM (inactive) | > 100 µM (inactive) |
| CCOC1c2cc(OC)c(OC)cc2-c2ccc3ccccc3c2N1C (stereo unspecified) | 25.5 µM (inactive) | 9.35 µM (inactive) | 42.4 µM (inactive) | 15.3 µM (inactive) | 11.2 µM (inactive) | 14.8 µM (inactive) | 6.46 µM (inactive) | 22.9 µM (inactive) | 33.6 µM (inactive) |
| O=C(Nc1cc(Cl)c(Cl)cc1Cl)C(=O)C1C(=O)NC(=S)NC1=O | > 100 µM (inactive) | > 100 µM (inactive) | > 100 µM (inactive) | > 100 µM (inactive) | > 100 µM (inactive) | > 100 µM (inactive) | > 100 µM (inactive) | > 100 µM (inactive) | > 100 µM (inactive) |
| [N-]=[N+]=N/C1=C/CCCCC(=O)C1 | > 100 µM (inactive) | > 100 µM (inactive) |  | > 100 µM (inactive) | > 100 µM (inactive) | > 100 µM (inactive) | > 100 µM (inactive) |  | > 100 µM (inactive) |
| O=[N+]([O-])c1cc(C(F)(F)F)cc([N+](=O)[O-])c1CCl | 1.83 µM (inactive) | 0.52 µM (active) | 1.93 µM (inactive) | 3.98 µM (inactive) | 1.57 µM (inactive) | 8.97 µM (inactive) | 1.23 µM (inactive) | 2.8 µM (inactive) | 4.69 µM (inactive) |
| CCOC(=O)C1C=C2O[C@@H]3OC4(CCCCC4)O[C@@H]3C2C2C(=O)CCC(=O)[C@@]12C(=O)OC (stereo partly specified) | > 100 µM (inactive) | > 100 µM (inactive) | > 100 µM (inactive) | > 100 µM (inactive) | > 100 µM (inactive) | > 100 µM (inactive) | > 100 µM (inactive) | > 100 µM (inactive) | > 100 µM (inactive) |
| [O-][n+]1c2cc3c(cc2[n+]([O-])c2c(O)cccc21)CN(CCN1CCOCC1)C3 |  | 8.41 µM (inactive) | > 100 µM (inactive) | 35.4 µM (inactive) | 14.5 µM (inactive) | 12.5 µM (inactive) | 53.6 µM (inactive) | > 100 µM (inactive) | 32.4 µM (inactive) |
| CC1CCC2(OC1)OC1CC3C4CCC5CC(O)CCC5(C)C4CC(=O)OC3(C)C1C2C (stereo unspecified) | > 100 µM (inactive) | > 100 µM (inactive) | > 100 µM (inactive) | > 100 µM (inactive) | > 100 µM (inactive) |  | > 100 µM (inactive) |  | > 100 µM (inactive) |
| CC(=O)O[C@H]1C=CC23OC(=O)[C@]1(C)[C@H]2[C@H](C(=O)O)C12CC(=O)[C@@](CO)(CC[C@H]13)C2 | > 100 µM (inactive) |  | > 100 µM (inactive) | > 100 µM (inactive) | > 100 µM (inactive) | > 100 µM (inactive) | > 100 µM (inactive) | > 100 µM (inactive) | > 100 µM (inactive) |
| O=C(CC1(O)C(=O)Nc2ccc([N+](=O)[O-])cc21)c1ccc(Br)cc1 (stereo unspecified) | 45.3 µM (inactive) | 32.1 µM (inactive) | > 100 µM (inactive) | > 100 µM (inactive) | 19.5 µM (inactive) | 32.3 µM (inactive) |  |  | 23.2 µM (inactive) |
| O=C1OC(CC(=O)c2ccc(F)cc2)C(Cl)=C1Cl (stereo unspecified) | 21.6 µM (inactive) | 40.3 µM (inactive) | 17.9 µM (inactive) |  | 73.3 µM (inactive) | 26.7 µM (inactive) |  |  | 37.9 µM (inactive) |
| O=C(/C=C/c1ccc(OCCCOc2ccc(/C=C/C(=O)c3ccc(Cl)cc3)cc2)cc1)c1ccc(Cl)cc1 | > 100 µM (inactive) | > 100 µM (inactive) | 5.42 µM (inactive) | > 100 µM (inactive) | > 100 µM (inactive) | > 100 µM (inactive) | > 100 µM (inactive) |  | > 100 µM (inactive) |
| COc1cc2c(c(OC)c1OC)-c1ccc(SC)c(=O)cc1[C@@H](NCc1ccccc1[N+](=O)[O-])CC2 | 0.00762 µM (active) | 0.00796 µM (active) |  | 0.00314 µM (active) | 0.004 µM (active) | 0.0176 µM (active) | 0.004 µM (active) | 0.01 µM (active) | 0.00682 µM (active) |
| COC(=O)/C=C(C)/C=C/c1c(C)c(C(C)=O)c(C)n1C | > 100 µM (inactive) |  | > 100 µM (inactive) | > 100 µM (inactive) | > 100 µM (inactive) | > 100 µM (inactive) | > 100 µM (inactive) | > 100 µM (inactive) | > 100 µM (inactive) |
| CC1=CC(=O)N(c2c(C)cccc2Cl)C(C)N1 (stereo unspecified) | > 100 µM (inactive) | > 100 µM (inactive) | > 100 µM (inactive) | > 100 µM (inactive) | > 100 µM (inactive) |  | > 100 µM (inactive) | > 100 µM (inactive) | > 100 µM (inactive) |
| COC(=O)C12C3C4C1C1C2C3C41C(=O)N(C(C)C)C(C)C (stereo unspecified) | > 100 µM (inactive) | > 100 µM (inactive) |  | > 100 µM (inactive) | > 100 µM (inactive) |  | > 100 µM (inactive) |  | > 100 µM (inactive) |
| O=C(CC(C(=O)c1ccsc1)c1cccs1)c1cccs1 (stereo unspecified) | > 100 µM (inactive) | 41.9 µM (inactive) |  | > 100 µM (inactive) | 96.2 µM (inactive) | 70.1 µM (inactive) | 84.5 µM (inactive) |  | > 100 µM (inactive) |
| O=C(/C=C1\Nc2ccccc2C(=O)N1c1ccccc1Cl)c1ccccc1 | > 100 µM (inactive) | 86.3 µM (inactive) | > 100 µM (inactive) | > 100 µM (inactive) | > 100 µM (inactive) |  | > 100 µM (inactive) | > 100 µM (inactive) | > 100 µM (inactive) |
| Nc1ccn(CCNCCn2cnc3nc(N)[nH]c(=O)c32)c(=O)n1 | > 100 µM (inactive) | > 100 µM (inactive) | > 100 µM (inactive) | > 100 µM (inactive) |  | > 100 µM (inactive) |  | > 100 µM (inactive) | > 100 µM (inactive) |
| O=C1NC2(CCCCC2)C(=O)N1CCN(CCCl)CCCl [SPIROMUSTINE] | 164 µM (inactive) | 88.7 µM (inactive) | 236 µM (inactive) | > 194 µM (inactive) | 228 µM (inactive) | 28.8 µM (inactive) | 71.6 µM (inactive) |  | 148 µM (inactive) |
| COc1cccc(NC(=O)C(C)(C)C)c1C=O | 51.9 µM (inactive) | 34.6 µM (inactive) | 91 µM (inactive) | 43.8 µM (inactive) | 59.3 µM (inactive) | 7.38 µM (inactive) |  | 81.3 µM (inactive) | 51.2 µM (inactive) |
| CSC(=S)NNC(=O)c1ccncc1 | 13.5 µM (inactive) | 14.3 µM (inactive) | 25.2 µM (inactive) | 32.7 µM (inactive) | 19.1 µM (inactive) | 21.9 µM (inactive) | 21.7 µM (inactive) | 30 µM (inactive) | 28.2 µM (inactive) |
